Results as given in patent US20100056525A1, “5- AND 6- SUBSTITUTED BENZIMIDAZOLE THIOPHENE COMPOUNDS” (priority 2006, published 2010).

What was measured:
PLK1 kinase domain = target: T1, PLK1 kinase domain (Homo sapiens, UniProt P53350); experiment: Assay for Inhibition of PLK1 (SPA, 33P-ATP); assay type: biochemical; conditions: 2 nM PLK1 kinase domain, 1 μM ATP, 22° C.; read-out: PLK1 pIC50 (converted)
T1 construct: made in house; host or cells: baculovirus infected T. ni cells
Method: A. Preparation of 6× N-Terminal His-Tagged PLK Kinase Domain
All procedures were performed at 4° C. Cells were lysed in 50 mM HEPES, 200 mM NaCl, 50 mM imidazole, 5% glycerol; pH 7.5. The homogenate was centrifuged at 14K rpm in a SLA-1500 rotor for 1 hr and the supernatant filtered through a 1.2 micron filter. The supernatant was loaded onto a Nickel chelating Sepharose (Amersham Pharmacia) column and washed with lysis buffer. Protein was eluted using 20%, 30% and 100% buffer B steps where buffer B was 50 mM HEPES, 200 mM NaCl, 300 mM imidazole, 5% glycerol; pH 7.5. Fractions containing PLK were determined by SDS-PAGE. Fractions containing PLK were diluted five-fold with 50 mM HEPES, 1 mM DTT, 5% glycerol; pH 7.5, then loaded on an SP Sepharose (Amersham Pharmacia) column. After washing the column with 50 mM HEPES, 1 mM DTT, 5% glycerol; pH 7.5, PLK was step eluted with 50 mM HEPES, 1 mM DTT, 500 mM NaCl; 5% glycerol; pH 7.5. PLK was concentrated using a 10 kDa molecular weight cutoff membrane and then loaded onto a Superdex 200 gel filtration (Amersham Pharmacia) column equilibrated in 25 mM HEPES, 1 mM DTT, 500 mM NaCl, 5% glycerol; pH 7.5. Fractions containing PLK were determined by SDS-PAGE. PLK was pooled, aliquoted and stored at −80° C. Samples were quality controlled using mass spectrometry, N-terminal sequencing and amino acid analysis.
B. Enzyme Activity +/− Inhibitors was Determined as Follows:
All measurements were obtained under conditions where signal production increased linearly with time and enzyme. Test compounds were added to white 384-well assay plates (0.1 μL for 10 μL and some 20 μL assays, 1 μL for some 20 μL assays) at variable known concentrations in 100% DMSO. DMSO (1-5% final, as appropriate) and EDTA (65 mM in reaction) were used as controls.
Reaction Mix (10 or 20 μL) was quickly added to each well immediately following addition of enzyme via automated liquid handlers and incubated 1-1.5 h at 22° C. The 20 μL enzymatic reactions were stopped with 50 μL of stop mix (50 mM EDTA, 4.0 mg/mL Streptavidin SPA beads in Standard Dulbecco's PBS (without Mg^2+ and Ca^2+), 50 μM ATP) per well. The 10 μL reactions were stopped with 10 μL of stop mix (50 mM EDTA, 3.0 mg/mL Streptavidin-coupled SPA Imaging Beads (“LeadSeeker”) in Standard Dulbecco's PBS (without Mg^2+ and Ca^2+), 50 μM ATP) per well. Plates were sealed with clear plastic seals, spun at 500×g for 1 min or settled overnight, and counted in Packard TopCount for 30 seconds/well (regular SPA) or imaged using a Viewlux imager (LeadSeeker SPA). Signal above background (EDTA controls) was converted to percent inhibition relative to that obtained in control (DMSO-only) wells.

[1] = tested on: HCT-116 (human colon) cells; experiment: Cell-Titer Glo Cell Growth Inhibition Assay; assay type: cell-based; conditions: HCT-116 cells, 72 h incubation, CellTiter-Glo, read-out: HCT116 IC50
Method: A549-L (human lung), Colo 205 (human colon), HCT-116 (human colon), HT29 (human colon), MX-1 (human breast), SKOV3 (human ovary) and P388 (murine leukemia) cell lines were cultured in RPM11640 containing 10% fetal bovine serum at 37° C. in a 5% CO2 incubator. Cell lines were split into T75 flasks (Falcon #353136) two to three days prior to assay set up at density which yields approximately 70-80% confluency at time of harvest for assay. Cells were harvested using 0.25% trypsin with EDTA (Glibco/Invitrogen #25200-056), Cell counts were performed on cell suspensions using Trypan Blue exclusion staining, cells were then plated in 105 µL of culture media per well at the following densities in 96 well Costar #3916 black flat bottom plates: A549-L 500 cells/well, Colo205 500 cells/well, HCT-116 500 cells/well, HT29 500 cells/well, MX-1 500 cells/well, SKOV3 500 cells/well and P388 250 cells/well. All plates were placed at 5% CO2 37° C. overnight and then test compounds were added the following day. One plate of each cell type was treated with CellTiter-Glo (Promega #G7573) for a day 0 proliferation measurement and read as described below. The test compounds were prepared in clear U bottom polypropylene 96 well plates (Falcon #35-1190 with consecutive two fold dilutions. 9 uL of these dilutions was added into each well of the cell plates. The final concentration of DMSO in all wells was 0.15%. Cells were incubated at 37° C., 5% CO2 for 72 h. Following 72 h of incubation with compounds each plate was developed and read. CellTiter-Glo reagent was added to assay plates using a volume equivalent to the cell culture volume in the wells. Plates were shaken for approximately 2 min and incubated at rt for approximately 15 min and the chemiluminescent signal was read on the Victor V or Envison 2100 reader. […] Concentration of compound that inhibited 50% of cell growth (IC50) was analyzed by 4 or 6 parameter fit of data using XLfit, value of no cell addition was substracted from all samples for background.

T1 sequence (P53350 21-346): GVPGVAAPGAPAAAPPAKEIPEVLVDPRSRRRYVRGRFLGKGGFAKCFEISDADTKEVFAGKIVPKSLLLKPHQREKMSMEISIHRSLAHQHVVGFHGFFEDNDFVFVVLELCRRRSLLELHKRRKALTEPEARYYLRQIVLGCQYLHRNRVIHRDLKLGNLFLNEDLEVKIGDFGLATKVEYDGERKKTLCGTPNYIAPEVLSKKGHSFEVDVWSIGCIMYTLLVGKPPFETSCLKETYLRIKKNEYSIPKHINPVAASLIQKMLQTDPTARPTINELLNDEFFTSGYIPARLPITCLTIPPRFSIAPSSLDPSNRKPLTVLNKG

IC50 (PLK1 kinase domain) [nM] | IC50 [1] [nM] | Structure (SMILES)
< 100 | < 500 | C[C@@H](Oc1cc(-n2cnc3cc(-c4ccc(NCCCN5CCN(C)CC5)nc4)ccc32)sc1C(N)=O)c1ccccc1Cl [Example 31, 3-{[(1R)-1-(2-chlorophenyl)ethyl]oxy}-5-[5-(6-{[3-(4-methyl-1-piperazinyl)propyl]amino}-3-pyridinyl)-1H-benzimidazol-1-yl]-2-thiophenecarboxamide]
< 100 | < 500 | C[C@@H](Oc1cc(-n2cnc3cc(-c4ccc(NCCCN(C)C)nc4)ccc32)sc1C(N)=O)c1ccccc1Cl [Example 29, 3-{[(1R)-1-(2-chlorophenyl)ethyl]oxy}-5-[5-(6-{[3-(dimethylamino)propyl]amino}-3-pyridinyl)-1H-benzimidazol-1-yl]-2-thiophenecarboxamide]
< 100 | < 500 | C[C@@H](Oc1cc(-n2cnc3cc(-c4ccnc(NCCCN5CCN(C)CC5)n4)ccc32)sc1C(N)=O)c1ccccc1Cl [Example 17, 3-{[(1R)-1-(2-chlorophenyl)ethyl]oxy}-5-[5-(2-{[3-(4-methyl-1-piperazinyl)propyl]amino}-4-pyrimidinyl)-1H-benzimidazol-1-yl]-2-thiophenecarboxamide]
< 100 | < 500 | C[C@@H](Oc1cc(-n2cnc3cc(-c4ccnc(NCCN(C)C)n4)ccc32)sc1C(N)=O)c1ccccc1C(F)(F)F [Example 16, 5-[5-(2-{[2-(Dimethylamino)ethyl]amino}pyrimidin-4-yl)-1H-benzimidazol-1-yl]-3-({(1R)-1-[2-(trifluoromethyl)phenyl]ethyl}oxy)thiophene-2-carboxamide]
< 100 | < 500 | C[C@@H](Oc1cc(-n2cnc3cc(-c4ccc(N(C)CCCN(C)C)nc4)ccc32)sc1C(N)=O)c1ccccc1Cl [Example 33, 3-{[(1R)-1-(2-chlorophenyl)ethyl]oxy}-5-(5-[6-[[3-(dimethylamino)propyl](methyl)amino]-3-pyridinyl]-1H-benzimidazol-1-yl)-2-thiophenecarboxamide]
< 100 | < 500 | C[C@@H](Oc1cc(-n2cnc3cc(-c4ccc(NCCN5CCOCC5)nc4)ccc32)sc1C(N)=O)c1ccccc1Cl [Example 32, 3-{[(1R)-1-(2-chlorophenyl)ethyl]oxy}-5-[5-(6-{[2-(4-morpholinyl)ethyl]amino}-3-pyridinyl)-1H-benzimidazol-1-yl]-2-thiophenecarboxamide]
< 100 | < 500 | C[C@@H](Oc1cc(-n2cnc3cc(-c4ccnc(NCCN)c4)ccc32)sc1C(N)=O)c1ccccc1C(F)(F)F [Example 6, 5-(5-{2-[(2-Aminoethyl)amino]-4-pyridinyl}-1H-benzimidazol-1-yl)-3-([(1R)-1-[2-(trifluoromethyl)phenyl]ethyl]oxy)-2-thiophenecarboxamide]
< 100 | 500 to 1000 | C[C@@H](Oc1cc(-n2cnc3cc(-c4ccc(NCCCN5CCN(C)CC5)nn4)ccc32)sc1C(N)=O)c1ccccc1Cl [Example 34, 3-{[(1R)-1-(2-chlorophenyl)ethyl]oxy}-5-[5-(6-{[3-(4-methyl-1-piperazinyl)propyl]amino}-3-pyridazinyl)-1H-benzimidazol-1-yl]-2-thiophenecarboxamide]
< 100 | < 500 | C[C@@H](Oc1cc(-n2cnc3cc(-c4ccnc(NCCCN5CCN(C)CC5)c4)ccc32)sc1C(N)=O)c1ccccc1C(F)(F)F [Example 9, 5-[5-(2-{[3-(4-Methyl-1-piperazinyl)propyl]amino}-4-pyridinyl)-1H-benzimidazol-1-yl]-3-({(1R)-1-[2-(trifluoromethyl)phenyl]ethyl}oxy)-2-thiophenecarboxamide]
< 100 | < 500 | C[C@@H](Oc1cc(-n2cnc3cc(-c4ccnc(NCCCN(C)C)c4)ccc32)sc1C(N)=O)c1ccccc1C(F)(F)F [Example 5, 5-[5-(2-{[3-(Dimethylamino)propyl]amino}-4-pyridinyl)-1H-benzimidazol-1-yl]-3-([(1R)-1-[2-(trifluoromethyl)phenyl]ethyl]oxy)-2-thiophenecarboxamide]
< 100 | < 500 | C[C@@H](Oc1cc(-n2cnc3cc(-c4ccnc(NC[C@@H](O)CO)c4)ccc32)sc1C(N)=O)c1ccccc1Cl [Example 13, 3-{[(1R)-1-(2-chlorophenyl)ethyl]oxy}-5-[5-(2-{[(2R)-2,3-dihydroxypropyl]amino}-4-pyridinyl)-1H-benzimidazol-1-yl]-2-thiophenecarboxamide]
< 100 | < 500 | C[C@@H](Oc1cc(-n2cnc3cc(-c4cccc(OCCN5CCCC5)c4)ccc32)sc1C(N)=O)c1ccccc1Cl [Example 23, 3-{[(1R)-1-(2-chlorophenyl)ethyl]oxy}-5-[5-(3-{[2-(1-Pyrrolidinyl)ethyl]oxy}phenyl)-1H-benzimidazol-1-yl]-2-thiophenecarboxamide]
< 100 | < 500 | C[C@@H](Oc1cc(-n2cnc3cc(-c4ccnc(N(C)CCN(C)C)c4)ccc32)sc1C(N)=O)c1ccccc1C(F)(F)F [Example 7, 5-(5-{2-[[2-(Dimethylamino)ethyl](methyl)amino]-4-pyridinyl}-1H-benzimidazol-1-yl)-3-({(1R)-1-[2-(trifluoromethyl)phenyl]ethyl}oxy)-2-thiophenecarboxamide]
< 100 | < 500 | C[C@@H](Oc1cc(-n2cnc3cc(-c4ccnc(NC(=O)CN(C)C)c4)ccc32)sc1C(N)=O)c1ccccc1C(F)(F)F [Example 3, 5-(5-{2-[(N,N-dimethylglycyl)amino]-4-pyridinyl}-1H-benzimidazol-1-yl)-3-({(1R)-1-[2-(trifluoromethyl)phenyl]ethyl}oxy)-2-thiophenecarboxamide]
< 100 | < 500 | C[C@@H](Oc1cc(-n2cnc3cc(-c4ccc(NC(=O)CN5CCOCC5)cc4)ccc32)sc1C(N)=O)c1ccccc1Cl [Example 24, 3-{[(1R)-1-(2-chlorophenyl)ethyl]oxy}-5-(5-[4-[(4-morpholinylacetyl)amino]phenyl]-1H-benzimidazol-1-yl)-2-thiophenecarboxamide]
< 100 | < 500 | C[C@@H](Oc1cc(-n2cnc3cc(-c4ccc(NCCN(C)C)nc4)ccc32)sc1C(N)=O)c1ccccc1Cl [Example 30, 3-{[(1R)-1-(2-chlorophenyl)ethyl]oxy}-5-[5-(6-{[2-(dimethylamino)ethyl]amino}-3-pyridinyl)-1H-benzimidazol-1-yl]-2-thiophenecarboxamide]
